Molecular target: T1, KCNJ3/KCNJ5^G151R (Homo sapiens, UniProt P48544, G151R)
T1 construct: GFP; expressed in transfected cells; host or cells: HEK293T (American Type Culture Collection), transient co-transfection
T1 sequence (P48544 1-419 G151R): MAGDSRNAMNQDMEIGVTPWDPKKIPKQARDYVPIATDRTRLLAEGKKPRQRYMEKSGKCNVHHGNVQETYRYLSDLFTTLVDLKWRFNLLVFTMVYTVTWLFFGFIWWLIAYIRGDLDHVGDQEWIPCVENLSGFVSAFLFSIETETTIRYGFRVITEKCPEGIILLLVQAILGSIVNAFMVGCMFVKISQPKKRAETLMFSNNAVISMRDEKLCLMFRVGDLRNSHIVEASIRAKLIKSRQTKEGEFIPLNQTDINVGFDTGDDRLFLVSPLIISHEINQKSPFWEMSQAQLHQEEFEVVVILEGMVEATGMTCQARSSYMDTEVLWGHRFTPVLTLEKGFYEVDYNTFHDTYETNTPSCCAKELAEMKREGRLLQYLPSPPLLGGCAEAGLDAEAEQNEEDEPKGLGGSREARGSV
T1 sequence (P48549 1-501 partner): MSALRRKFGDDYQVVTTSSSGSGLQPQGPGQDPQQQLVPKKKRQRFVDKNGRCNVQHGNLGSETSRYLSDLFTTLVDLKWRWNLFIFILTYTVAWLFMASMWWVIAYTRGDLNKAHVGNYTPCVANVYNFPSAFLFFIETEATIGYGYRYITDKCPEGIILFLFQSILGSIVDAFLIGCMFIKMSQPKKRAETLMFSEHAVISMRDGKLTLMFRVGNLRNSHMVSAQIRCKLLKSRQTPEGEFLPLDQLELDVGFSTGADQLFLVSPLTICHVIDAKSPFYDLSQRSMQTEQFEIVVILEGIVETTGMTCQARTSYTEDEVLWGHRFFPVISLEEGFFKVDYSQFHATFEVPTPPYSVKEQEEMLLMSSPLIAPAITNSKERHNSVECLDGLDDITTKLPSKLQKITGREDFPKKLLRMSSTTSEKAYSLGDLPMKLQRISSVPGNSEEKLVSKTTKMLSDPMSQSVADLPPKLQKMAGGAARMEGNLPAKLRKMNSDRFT
Assay: Perforated whole-cell patch clamp, KCNJ3/KCNJ5^G151R heterotetramers in HEK293T cells
Assay type: cell-based
Procedure: HEK293T cells (American Type Culture Collection) were used for transient expression of GFP-tagged KCNJ5 or KCNJ3. The cells were grown in Dulbecco's modified Eagle medium (DMEM; Invitrogen) supplemented with 10% FBS (Invitrogen) in 5% CO2 and 95% air at 37° C. Cells were grown to 50-70% confluence for transfection, and the corresponding cDNAs (Choi et al., 2011, Science 331:768-772) were simultaneously applied to the cells using TurboFect transfection reagent according to the manufacturer's protocol (Fermentas). […]
Within 24 hr after transfection, the cells were treated with trypsin-containing medium (TrypLE Express) (Gibco) for 10 minutes to detach the cells. […] Fluorescence signal (an indication of positive transfection) was detected with an intensified video imaging system including a SIT 68 camera (Long Island Industries). […] After forming a high resistance seal (>2 GΩ), the membrane capacitance was monitored until the whole-cell patch configuration was formed. The cell membrane capacitance was measured and compensated. The K/cation currents were measured from −80 mV to 20 mV with 20 mV steps by an Axon 200A patch-clamp amplifier. The currents were low-pass filtered at 1 KHz and digitized by an Axon interface (Digidata 1200) and were analyzed using the pClamp software system 9 (Axon). […]

Molecule	inhibition of mutant KCNJ5 in electrophysiological studies (10 μM, heterotetramers of KCNJ3 and mutant or WT KCNJ5 (FIG. 13))	inhibition of KCNJ3/KCNJ5^G151R currents (20 μM, 10 minutes after addition)
N-demethyl-N-isobutyl-8,9-anhydroerythromycin A 6,9-hemiacetal [PLUX37]	specific inhibition of mutant KCNJ5	
CC[C@H]1OC(=O)[C@H](C)[C@@H](O[C@H]2C[C@@](C)(OC)[C@@H](O)[C@H](C)O2)[C@H](C)[C@@H](O[C@@H]2O[C@H](C)C[C@H](N(C)C)[C@H]2O)[C@](C)(O)C[C@@H](C)/C(=N\OCOCCOC)[C@H](C)[C@@H](O)[C@]1(C)O [Roxithromycin, roxithromycin]		almost complete inhibition

— patent US11484543B2, “Compositions and methods for diagnosing and treating diseases and disorders associated with mutant KCNJ5” (The Rockefeller University, priority 2017, dated 2022)
